Patent US20260306641A1, “HELICASE DEGRADERS” (priority 2023, published 2026)

Experiments:
HSP90 = settings: cited from earlier work
[1] = test system: T1, human CMG helicase (hCMG); test: hCMG ATPase activity, FP ADP^2 Transcreener assay; assay type: biochemical; settings: primary FP ATPase assay
T1 construct: made in house; host or cells: High Five insect cells, baculovirus (11 viruses co-infected)
Experimental: The fluorescent-polarization (FP) ADP-sensing assays were performed using the Transcreener® ADP^2 FP assay kit (cat #3010-1K, Bellbrook Labs). For hCMG inhibitor screening, assays were performed at 37° C. for 1 hr in 10 μl reactions in a 384-well plate (cat. #4514, Corning) using 2 μL of hCMG (~15 fmol), 25 mM Hepes-NaOH (pH 7.5), 10 mM NaCl, 0.5 mM ATP, 10 mM magnesium acetate, 1 mM DTT, 0.1 mg/ml BSA, and DNA fork substrates. […] Selected inhibitors or samples from a chemical library were added into the reactions when conducting the screening or testing inhibitor effectiveness. The NCI Diversity Set VI chemical library was obtained from the National Cancer Institute (Bethesda, MD).
The window of sensitivity for the ADP-sensing assays is determined by setting up two 10 μL control samples without any added hCMG helicase: a Low-FP mixture (4 nM ADP Alexa Fluor-633 Tracer alone) and a High-FP mixture (4 nM ADP Alexa Fluor-633 Tracer plus patented anti-ADP^2 Antibody). The amount of ADP^2 Antibody used had to be adjusted to account for the use of 500 μM ATP in our hCMG assays, versus 10 μM ATP in enzyme reactions typically assessed with standard kits prepared by BellBrook Labs. […] This was done according to the manufacturer by performing a titration with increasing ADP^2 Antibody, fixed 4 nM ADP Alexa Fluor-633 Tracer, and 500 μM ATP to determine the ~EC80-85 for millipol (mP) changes, which determined the optimal ADP^2 Antibody concentration to use as 0.64 mg/ml (FIG. 9A). Samples are read with a Perkin Elmer Envision II plate reader with optimized Cy5 (far-red) FP-compatible mirror and cubes (cat #2100-8390, Perkin Elmer). The Low-FP sample is the least polarized and gives a low mP reading, while the High-FP sample is the most polarized and gives the highest mP reading. The difference between the Low-FP and High-FP values defines the FP assay window, which is normally in a range of 150-200 mP under ideal conditions for screening purposes. The hCMG helicase hydrolyzes ATP to ADP and decreases the mP reading within this window, with an ideal change (ΔmP) in the FP window of at least 50% to be in a readable range for inhibitor screening (as per manufacturer). Potential hCMG chemical inhibitors reverse this effect and cause the mP readings to increase.
We performed a titration with increasing and decreasing concentrations of ADP and ATP, respectively, to assess the sensitivity of the FP assay in detecting ADP production (FIG. 9B). Consistent with the stated manufacturer predictions, the assay can reliably detect 1-3% changes in ADP production (i.e., 5-15 μM ADP production) in starting concentrations of ATP of 500 μM, with a Z′ efficiency between 0.6-0.8 (determined following manufacturer protocols).
Once the hCMG enzyme reactions are complete, 10 μL of 1× Stop Solution and Detection Buffer (buffer from BellBrook Labs; containing 4 nM ADP Alexa Fluor-633 Tracer plus ADP^2 Antibody) are added to each reaction, and to the High-FP control. The Low-FP control receives 10 μL of 1× Stop Solution and Detection Buffer containing only 4 nM ADP Alexa Fluor-633 Tracer (no Antibody). Samples are incubated at 25° C. for 1 hr, then read in the plate reader. […] Plate readings from these tests of potential positive hits should be similar to that seen with the Low-FP control, or such hits may instead be false-positives.

[2] = test system: solid tumor cell lines (NCI-60 set); settings: cited from earlier work

T1 sequence (P49736 whole entry): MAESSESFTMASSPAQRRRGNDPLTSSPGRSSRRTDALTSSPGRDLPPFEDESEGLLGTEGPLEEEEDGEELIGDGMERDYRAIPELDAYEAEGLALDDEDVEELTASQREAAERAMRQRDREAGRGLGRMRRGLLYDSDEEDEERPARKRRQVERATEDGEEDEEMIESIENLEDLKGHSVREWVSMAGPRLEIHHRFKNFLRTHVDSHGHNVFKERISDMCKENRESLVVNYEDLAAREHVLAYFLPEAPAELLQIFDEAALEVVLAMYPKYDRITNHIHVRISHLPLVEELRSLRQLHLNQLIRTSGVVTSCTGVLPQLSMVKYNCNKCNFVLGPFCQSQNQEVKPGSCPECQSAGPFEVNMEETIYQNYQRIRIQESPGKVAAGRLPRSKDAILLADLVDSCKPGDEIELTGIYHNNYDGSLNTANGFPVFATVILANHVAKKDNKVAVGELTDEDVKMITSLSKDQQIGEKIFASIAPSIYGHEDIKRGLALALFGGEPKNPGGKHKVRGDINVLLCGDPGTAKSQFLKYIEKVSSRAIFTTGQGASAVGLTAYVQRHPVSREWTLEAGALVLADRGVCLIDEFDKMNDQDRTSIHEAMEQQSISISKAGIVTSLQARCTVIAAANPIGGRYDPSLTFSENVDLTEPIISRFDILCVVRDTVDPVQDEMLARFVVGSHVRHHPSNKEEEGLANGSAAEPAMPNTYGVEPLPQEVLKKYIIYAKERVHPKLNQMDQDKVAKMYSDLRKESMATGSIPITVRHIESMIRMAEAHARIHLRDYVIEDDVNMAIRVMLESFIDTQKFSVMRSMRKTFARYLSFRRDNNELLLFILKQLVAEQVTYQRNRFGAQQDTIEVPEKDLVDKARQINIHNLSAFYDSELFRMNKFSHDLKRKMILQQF
T1 sequence (P25205 whole entry, further chain): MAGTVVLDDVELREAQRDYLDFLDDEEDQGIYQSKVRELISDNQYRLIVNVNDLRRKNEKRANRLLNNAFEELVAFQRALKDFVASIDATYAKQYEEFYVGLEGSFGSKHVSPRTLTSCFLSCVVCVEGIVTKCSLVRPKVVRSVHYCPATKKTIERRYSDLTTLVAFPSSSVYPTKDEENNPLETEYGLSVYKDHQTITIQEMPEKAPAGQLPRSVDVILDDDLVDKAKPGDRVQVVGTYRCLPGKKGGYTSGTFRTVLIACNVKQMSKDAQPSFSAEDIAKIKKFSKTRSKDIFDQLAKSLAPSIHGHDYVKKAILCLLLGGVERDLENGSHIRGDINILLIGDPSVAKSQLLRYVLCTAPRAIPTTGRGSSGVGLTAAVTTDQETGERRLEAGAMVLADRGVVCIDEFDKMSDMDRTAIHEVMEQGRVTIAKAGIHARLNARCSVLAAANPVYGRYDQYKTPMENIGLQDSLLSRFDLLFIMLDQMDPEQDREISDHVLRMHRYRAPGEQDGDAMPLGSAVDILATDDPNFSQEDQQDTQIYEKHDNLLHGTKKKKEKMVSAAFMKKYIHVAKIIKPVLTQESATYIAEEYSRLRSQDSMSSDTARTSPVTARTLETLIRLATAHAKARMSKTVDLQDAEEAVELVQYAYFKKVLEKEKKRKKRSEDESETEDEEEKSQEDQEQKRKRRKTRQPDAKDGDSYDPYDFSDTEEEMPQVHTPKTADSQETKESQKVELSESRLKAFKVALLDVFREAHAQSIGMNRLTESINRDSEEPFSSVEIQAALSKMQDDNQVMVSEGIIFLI
T1 sequence (P33991 whole entry, further chain): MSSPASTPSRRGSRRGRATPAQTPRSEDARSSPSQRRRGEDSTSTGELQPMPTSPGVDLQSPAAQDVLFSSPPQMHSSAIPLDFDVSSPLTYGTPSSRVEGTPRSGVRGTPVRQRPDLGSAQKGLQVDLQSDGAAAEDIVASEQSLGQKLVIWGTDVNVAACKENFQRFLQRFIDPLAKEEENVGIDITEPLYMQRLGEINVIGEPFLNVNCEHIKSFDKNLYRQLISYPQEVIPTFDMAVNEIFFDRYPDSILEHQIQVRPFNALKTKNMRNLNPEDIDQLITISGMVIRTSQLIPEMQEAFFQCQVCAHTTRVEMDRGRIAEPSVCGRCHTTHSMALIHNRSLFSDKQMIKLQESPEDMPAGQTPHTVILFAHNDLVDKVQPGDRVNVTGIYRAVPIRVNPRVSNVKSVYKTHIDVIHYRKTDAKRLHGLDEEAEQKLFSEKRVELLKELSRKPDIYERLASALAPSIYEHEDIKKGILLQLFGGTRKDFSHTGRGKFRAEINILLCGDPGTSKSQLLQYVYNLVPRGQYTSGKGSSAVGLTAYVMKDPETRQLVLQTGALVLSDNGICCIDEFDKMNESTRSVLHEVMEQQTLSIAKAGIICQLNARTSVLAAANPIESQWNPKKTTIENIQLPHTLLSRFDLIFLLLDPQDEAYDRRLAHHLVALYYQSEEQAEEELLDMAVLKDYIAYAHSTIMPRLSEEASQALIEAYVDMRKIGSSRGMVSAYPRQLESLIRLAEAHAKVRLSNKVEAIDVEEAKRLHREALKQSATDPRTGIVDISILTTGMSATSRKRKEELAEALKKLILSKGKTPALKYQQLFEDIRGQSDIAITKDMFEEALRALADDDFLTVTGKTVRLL
T1 sequence (P33992 whole entry, further chain): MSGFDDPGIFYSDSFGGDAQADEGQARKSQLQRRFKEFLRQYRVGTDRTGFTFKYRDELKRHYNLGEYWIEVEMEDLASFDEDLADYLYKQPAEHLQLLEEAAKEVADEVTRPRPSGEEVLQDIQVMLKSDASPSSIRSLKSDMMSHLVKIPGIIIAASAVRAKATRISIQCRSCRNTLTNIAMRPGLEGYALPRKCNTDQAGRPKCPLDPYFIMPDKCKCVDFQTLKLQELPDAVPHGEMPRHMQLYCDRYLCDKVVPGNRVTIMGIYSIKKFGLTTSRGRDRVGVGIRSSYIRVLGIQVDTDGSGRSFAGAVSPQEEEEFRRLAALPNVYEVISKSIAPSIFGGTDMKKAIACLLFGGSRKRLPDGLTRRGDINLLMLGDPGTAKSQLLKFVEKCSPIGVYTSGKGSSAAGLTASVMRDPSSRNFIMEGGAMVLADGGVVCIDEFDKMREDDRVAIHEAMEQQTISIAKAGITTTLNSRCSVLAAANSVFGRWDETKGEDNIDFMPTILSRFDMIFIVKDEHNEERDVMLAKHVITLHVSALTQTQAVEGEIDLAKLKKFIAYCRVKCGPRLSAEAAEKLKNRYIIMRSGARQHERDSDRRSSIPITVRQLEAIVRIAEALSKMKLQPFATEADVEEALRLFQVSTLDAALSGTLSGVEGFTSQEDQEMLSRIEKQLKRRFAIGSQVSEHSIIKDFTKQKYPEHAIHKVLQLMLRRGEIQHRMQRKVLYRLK
T1 sequence (Q14566 whole entry, further chain): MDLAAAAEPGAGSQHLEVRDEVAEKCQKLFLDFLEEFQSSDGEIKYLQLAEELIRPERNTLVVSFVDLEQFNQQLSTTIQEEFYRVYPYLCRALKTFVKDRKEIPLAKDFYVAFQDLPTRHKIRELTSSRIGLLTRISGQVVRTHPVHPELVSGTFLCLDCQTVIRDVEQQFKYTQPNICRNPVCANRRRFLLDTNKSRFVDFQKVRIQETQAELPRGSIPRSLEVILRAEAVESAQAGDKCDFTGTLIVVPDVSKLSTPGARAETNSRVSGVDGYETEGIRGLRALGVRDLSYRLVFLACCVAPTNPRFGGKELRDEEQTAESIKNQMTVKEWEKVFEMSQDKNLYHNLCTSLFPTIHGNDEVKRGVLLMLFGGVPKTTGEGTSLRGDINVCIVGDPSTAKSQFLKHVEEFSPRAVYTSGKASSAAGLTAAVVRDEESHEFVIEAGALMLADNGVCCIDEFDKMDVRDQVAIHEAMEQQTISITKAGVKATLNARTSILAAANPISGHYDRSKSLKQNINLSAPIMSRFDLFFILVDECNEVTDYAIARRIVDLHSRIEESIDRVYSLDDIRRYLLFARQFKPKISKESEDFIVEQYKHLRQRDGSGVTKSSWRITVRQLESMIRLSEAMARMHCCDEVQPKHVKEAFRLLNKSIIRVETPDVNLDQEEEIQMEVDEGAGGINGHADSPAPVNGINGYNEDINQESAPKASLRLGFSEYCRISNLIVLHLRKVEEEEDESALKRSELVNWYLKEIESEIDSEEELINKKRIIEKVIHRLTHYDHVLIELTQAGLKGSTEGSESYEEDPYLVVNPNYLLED
T1 sequence (P33993 whole entry, further chain): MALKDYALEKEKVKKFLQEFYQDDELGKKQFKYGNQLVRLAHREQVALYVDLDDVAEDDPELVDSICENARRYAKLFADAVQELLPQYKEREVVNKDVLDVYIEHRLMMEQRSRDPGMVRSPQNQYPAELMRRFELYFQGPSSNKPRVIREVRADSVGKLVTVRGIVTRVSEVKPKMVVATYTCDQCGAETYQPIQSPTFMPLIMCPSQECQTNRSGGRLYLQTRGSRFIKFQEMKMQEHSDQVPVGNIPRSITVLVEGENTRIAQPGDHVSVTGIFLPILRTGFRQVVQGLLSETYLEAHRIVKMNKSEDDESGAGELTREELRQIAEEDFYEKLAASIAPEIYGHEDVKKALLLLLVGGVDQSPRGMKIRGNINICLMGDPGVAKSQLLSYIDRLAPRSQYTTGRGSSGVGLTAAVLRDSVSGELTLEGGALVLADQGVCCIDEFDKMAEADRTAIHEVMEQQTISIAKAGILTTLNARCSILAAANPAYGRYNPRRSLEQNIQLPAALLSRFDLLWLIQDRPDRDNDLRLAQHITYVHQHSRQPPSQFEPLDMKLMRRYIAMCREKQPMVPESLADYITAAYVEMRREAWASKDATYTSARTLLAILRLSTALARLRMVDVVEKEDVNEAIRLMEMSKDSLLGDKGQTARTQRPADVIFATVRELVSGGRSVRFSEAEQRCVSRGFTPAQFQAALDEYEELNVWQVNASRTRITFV

Row | SMILES | doses required to inhibit HSP90 (HSP90) [µM] | inhibition of hCMG ATP hydrolysis [1] | growth suppression of solid tumor cell lines [2]
1 | CO[C@@H]1[C@@H](OC(=O)c2ccc(C)[nH]2)[C@@H](O)[C@H](Oc2ccc3c(O)c(NC(=O)c4c[nH]c(C(=O)Nc5c(O)c6ccc(O[C@@H]7OC(C)(C)[C@H](OC)[C@@H](OC(=O)c8ccc(C)[nH]8)[C@H]7O)c(C)c6oc5=O)c4C)c(=O)oc3c2C)OC1(C)C [CA1] | 700 to 1000 | potent inhibitor of ATP hydrolysis by the hCMG | sensitive to similar low micromolar concentrations
2 | CO[C@@H]1[C@@H](OC(N)=O)[C@@H](O)[C@H](Oc2ccc3c(O)c(NC(=O)c4ccc(O)c(CC=C(C)C)c4)c(=O)oc3c2C)OC1(C)C [novobiocin] | 700 to 1000 | very little inhibitory effect on the hCMG | largely insensitive
